Assay results published in PMC11558097, “Enhanced Tumor‐Targeted Delivery of Arginine‐Rich Peptides via a Positive Feedback Loop Orchestrated by Piezo1/integrin β1 Signaling Axis” (Advanced Science, 2024).
One block for each molecule: values may come before it. Ends that are not written are not given here.

Legend:
bladder tumors = test: Mouse orthotopic BC model, IVIS imaging after intravesical instillation; assay type: in vivo; conditions: female nude mice, orthotopic integrin β1-GFP BC model
Procedure: All the animal experiments were carried out following guidelines approved by the ethics committee of Xi'an Jiaotong University, Xi'an, China. Female nude mice aged 4–6 weeks were randomly sorted. After gaseous anesthesia, an intravenous indwelling needle lubricated with paraffin cotton was inserted into the bladder and fixed well. Then, the urine was removed, and the bladder was rinsed with PBS 3 times. Next, the abdominal skin was disinfected by iodine tincture and cut open for approximately 1 cm. GFP‐integrin β1 cells (1 × 10^6/mL) were injected into the bladder wall with an insulin needle under direct visualization. Last, the abdominal wall was stitched and bound with gauze. After 7 days, the effect of bladder tumor implantation was observed. After intravesical perfusion of R11 peptides or gold nanoparticles, tumor‐bearing mice were detected using an in vivo imaging system/IVIS (AniView) to take images. In addition, frozen sections of the tumors were stained with DAPI, and the fluorescence of each section of the tumor was analyzed by fluorescence microscopy.

T24 cells [1] = test: Cellular uptake pathways, flow cytometry with endocytosis inhibitors; assay type: cell-based, human; conditions: serum-free media
Procedure: (§1) Flow cytometry was used to measure the fluorescence signal. Cells were seeded in a 6‐well plate at 1.0 × 10^5 cells per well and treated with R11 peptides and a series of inhibitors for 4 h, including NaN3 (active uptake inhibitor, 20 mM), methyl‐β‐cyclodextrin (MβCD: lipid raft‐mediated endocytosis inhibitor, 5 µg mL^−1), EIPA (macropinocytosis inhibitor, […]), Chlorpromazine (CPZ: clathrin‐mediated endocytosis, 5 µg mL^−1) or Dynasore (dynamin‐dependent endocytosis inhibitor, […]) in serum‐free media at 37 °C or 4 °C for 4 h, respectively. Then, the cells were trypsinized, washed, and suspended in 1 mL PBS. The fluorescence intensity of 10 000 cells was measured using a BD LSR II flow cytometer.

Piezo1 in T24 cells = test: Flow cytometry of Ca2+ signal and R11 uptake with Piezo1 agonist or inhibitor; assay type: cell-based, human; conditions: for effect on R11 uptake efficiency and Ca2+ release: T24 cells exposed to R11, Yoda1 10 nM, GsMTx4 2.5 nM
253J cells = test: Antibody block assay (integrin α2β1 antibody), R11 uptake by flow cytometry; assay type: cell-based, human; conditions: Anti-integrin α2β1 5 ug/mL for 2 h
Procedure: (§2) Antibody integrin α2β1 (ab30483) used for blocking the binding motif was purchased from ABCAM. Cells were planted in the 6‐well plates and treated with Anti‐integrin α2β1 (5 ug/mL). After incubation for 2 h, the cells were treated with R11 peptides and collected. Then, the cells were trypsinized, washed, and suspended in 1 mL PBS. The fluorescence intensity of 10 000 cells was measured using flow cytometer.

T24 cells [2] = test: as above; assay type: cell-based, human; conditions: Anti-integrin α2β1 5 ug/mL for 2 h
Procedure: as §2

[3] = test system: BC cell lines (5637, T24, and 253J); test: Flow cytometry and fluorescence microscopy, uptake of R11 in BC cell lines versus control cells; assay type: cell-based, human; conditions: BC cell lines versus Raw264.7 and SV-HUC control cells, R11 100 nM
Procedure: as §1

[4] = target: T1, integrin β1 (standard of an integrin β1 ELISA kit) (UniProt P05556 21-728); test: ELISA; integrin β1 standards (0.5 µg/mL) added to the microplate wells of an integrin β1 ELISA kit, in triplicate; R11-TRITC serially diluted in PBS (0.001-10 000 nM), 2 h at 37 °C; washed; fluorescence of the bound peptide read on a microplate reader; conditions: both partners purified
T1 construct: integrin β1 (ITGB1), standard protein of a commercial ELISA kit; also called ITGB1; integrin β1 standards; source: bought: standard of the integrin β1 ELISA kit, Shanghai Westang Bio-Tech CO., LTD
T1 sequence (P05556 21-728): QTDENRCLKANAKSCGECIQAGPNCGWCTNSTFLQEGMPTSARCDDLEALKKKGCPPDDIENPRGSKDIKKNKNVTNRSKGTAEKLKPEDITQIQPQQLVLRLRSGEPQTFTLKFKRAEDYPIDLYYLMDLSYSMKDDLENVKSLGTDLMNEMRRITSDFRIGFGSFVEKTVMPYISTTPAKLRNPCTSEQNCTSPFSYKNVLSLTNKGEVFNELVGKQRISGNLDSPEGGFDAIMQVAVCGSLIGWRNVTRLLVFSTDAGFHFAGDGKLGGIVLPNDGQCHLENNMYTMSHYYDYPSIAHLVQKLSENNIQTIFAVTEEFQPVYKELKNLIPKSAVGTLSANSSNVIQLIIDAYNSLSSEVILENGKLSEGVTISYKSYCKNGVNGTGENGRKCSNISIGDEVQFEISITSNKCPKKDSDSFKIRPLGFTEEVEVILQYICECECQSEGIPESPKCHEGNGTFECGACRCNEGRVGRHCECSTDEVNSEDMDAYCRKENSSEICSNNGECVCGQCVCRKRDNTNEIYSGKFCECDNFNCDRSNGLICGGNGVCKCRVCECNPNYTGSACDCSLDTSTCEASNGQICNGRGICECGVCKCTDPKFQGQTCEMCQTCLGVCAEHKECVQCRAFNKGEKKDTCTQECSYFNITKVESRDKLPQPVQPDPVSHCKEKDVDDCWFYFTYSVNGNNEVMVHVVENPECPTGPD

Molecule: N=C(N)NCCC[C@H](NC(=O)[C@H](CCCNC(=N)N)NC(=O)[C@H](CCCNC(=N)N)NC(=O)[C@H](CCCNC(=N)N)NC(=O)[C@H](CCCNC(=N)N)NC(=O)[C@H](CCCNC(=N)N)NC(=O)[C@H](CCCNC(=N)N)NC(=O)[C@H](CCCNC(=N)N)NC(=O)[C@H](CCCNC(=N)N)NC(=O)[C@H](CCCNC(=N)N)NC(=O)[C@H](CCCNC(=N)N)NC(=O)CN)C(=O)O [R11, hendeca‐arginine peptide]
identification of bladder tumors in vivo (IVIS) (bladder tumors): successfully identified bladder tumors in vivo but not adjacent kidney tissues
uptake of R11 with Dynasore (T24 cells [1]; Dynasore 80 µmol mL^−1, 4 h): inhibited uptake partly
uptake of R11 with EIPA (T24 cells [1]; EIPA (macropinocytosis inhibitor) 10 µmol mL^−1, 4 h): suppressed nearly half
uptake of R11 with NaN3 and 4 °C (T24 cells [1]; NaN3 20 mM or 4 °C, 4 h): blocked
Ca2+ signal (Piezo1 in T24 cells; T24 cells, varying R11 concentrations): increased consistently with the concentration of R11 peptides
uptake of R11 peptides after blocking integrin α2β1 (253J cells): completely inhibited
uptake of R11 peptides after blocking integrin α2β1 (T24 cells [2]): completely inhibited
fluorescence signal of R11 (uptake) [3]: stronger fluorescence signal in BC cell lines compared to control cells

Molecule: Clc1cccc(Cl)c1CSc1nnc(-c2cnccn2)s1 [Yoda1]
effect on R11 uptake efficiency and Ca2+ release (Piezo1 in T24 cells): enhanced both the uptake efficiency and Ca^2+ release

Molecule: GsMTx4
effect on R11 uptake efficiency and Ca2+ release (Piezo1 in T24 cells): opposite effect

EC50 [4]: 5.97 nM
B1: hendeca-arginine peptide (R11), GRRRRRRRRRRR-TRITC (peptide)
peptide: GRRRRRRRRRRR-{TRITC}
notes: designed cell-penetrating peptide: glycine followed by 11 arginines; also called R11 peptides; arginine-rich peptides; source: synthetic peptide, synthesized and purified by GL Biochem Ltd (Shanghai, China)
